Reference: PubChem BioAssay (NCI)
Several values for one entry are separate records, joined by “and”; a condition that tells them apart may be missing. Identical values can stand only once.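 Each compound was tested at five concentrations against cells in 96-well plates for 48 hours. GI50 is the concentration that inhibits growth by half. The concentration for full growth arrest is given as TGI.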

What was measured:
Assay in all cases: NCI-60 cell line screen, 48 h
COLO 205 colon = test system: COLO 205 colon
HOP-62 NSCLC = test system: HOP-62 NSCLC
HS 578T breast = test system: HS 578T breast
KM12 colon = test system: KM12 colon
LOX IMVI melanoma = test system: LOX IMVI melanoma
MCF7 breast = test system: MCF7 breast
SF-268 CNS = test system: SF-268 CNS
T-47D breast = test system: T-47D breast
TK-10 renal = test system: TK-10 renal
CCRF-CEM leukemia = test system: CCRF-CEM leukemia

| Structure (SMILES) | GI50 (COLO 205 colon) [µM] | TGI (COLO 205 colon) [µM] | GI50 (HOP-62 NSCLC) [µM] | TGI (HOP-62 NSCLC) | GI50 (HS 578T breast) [µM] | TGI (HS 578T breast) [µM] | GI50 (KM12 colon) [µM] | TGI (KM12 colon) [µM] | GI50 (LOX IMVI melanoma) [µM] | TGI (LOX IMVI melanoma) | GI50 (MCF7 breast) [µM] | TGI (MCF7 breast) [µM] | GI50 (SF-268 CNS) [µM] | TGI (SF-268 CNS) | GI50 (T-47D breast) [µM] | TGI (T-47D breast) [µM] | GI50 (TK-10 renal) [µM] | TGI (TK-10 renal) | GI50 (CCRF-CEM leukemia) [µM] | TGI (CCRF-CEM leukemia) [µM] |
| --- | --- | --- | --- | --- | --- | --- | --- | --- | --- | --- | --- | --- | --- | --- | --- | --- | --- | --- | --- | --- |
| O=[N+]([O-])c1ccc(Sc2nc(Cl)nc(NC3CCCC3)n2)cc1 | > 10 | > 10 | > 10 | > 10 µM | > 10 | > 10 | > 10 | > 10 | > 10 | > 10 µM | > 10 | > 10 | > 10 | > 10 µM | > 10 | > 10 | > 10 | > 10 µM | – | – |
| CC(=O)[CH-]C(=O)c1ccccc1.CC(=O)[CH-]C(=O)c1ccccc1.CC1(C)OCC(C2OC3OC(C)(C)OC3C2[O-])O1.CC1(C)OCC(C2OC3OC(C)(C)OC3C2[O-])O1.[Ti+4] (stereo not drawn) | – | – | 17.9 | 36.2 µM | – | – | 13.2 | 42.8 | 13.7 | 34.2 µM | – | – | 11.6 | 30 µM | – | – | 34.1 | > 100 µM | 3.49 | 39.8 |
| CCOC(=O)C1=C(C)N(Cc2ccccc2)C(=O)C1CC#N (stereo not drawn) | – | > 100 | – | > 100 µM | – | – | – | > 100 | – | – | – | – | – | – | – | – | – | – | – | > 100 |
| NCCCCCCCCCCCn1c2c(c3ccccc3c1=O)C(=O)c1ccccc1-2 | 2.24 | 5.45 | 2.19 | 4.83 µM | 22.4 | 52.6 | 3.95 | 37.8 | 5 | 21.1 µM | 8.63 | 37.9 | 6.05 | 49.1 µM | 4.42 | 26.6 | 3.14 | 8.97 µM | – | – |
| CCN(CC)CCOc1ccc(/C=C2\C[C@H]3[C@H]4CC=C5C[C@@H](O)CC[C@]5(C)[C@H]4CC[C@]3(C)[C@H]2O)cc1OC | 12.8 | > 50 | 8.89 | 22.8 µM | 8.66 | 18.7 | 8.1 | 17 | 7.7 | 15.3 µM | 12.4 | > 50 | 14.9 | 47 µM | 24.5 | > 50 | 5.49 | 11.5 µM | – | – |
| C1COCCOCCOCCOCCOCCO1.[Cl][Sn]([Cl])([c]1ccccc1)[c]1ccccc1 | 1.83 | 4.34 | 20.3 | 35 µM | – | – | 12.6 | 26.4 | 2.36 | 4.77 µM | – | – | 2.8 | 8.65 µM | – | – | 2.78 | 7.01 µM | – | – |
| NS(=O)(=O)c1ccc(NCc2cnc3ccccc3n2)cc1 | – | > 100 | – | > 100 µM | – | > 100 | – | > 100 | – | – | – | > 100 | – | > 100 µM | – | > 100 | – | > 100 µM | – | > 100 |
| COc1ccc2c(c1)[n+]([O-])c(-c1ccc(Br)cc1)c(N)[n+]2[O-] | – | 32.9 | – | > 100 µM | – | – | – | > 100 | – | – | – | – | – | > 100 µM | – | – | – | – | – | > 100 |
| Nc1ccccc1NC(=O)c1ccc(CN2CCC/C(=C\c3ccccn3)C2=O)cc1 | 1.15 | 3.9 | 2.5 | > 100 µM | – | – | 1.53 | > 100 | 0.696 | 3.07 µM | 0.797 | > 100 | 2.96 | 13 µM | 0.806 | 9.59 | 0.107 | 4.18 µM | 0.645 | > 100 |
| C[C@]12CC[C@H]3[C@@H](CCC4=CC(=O)CC[C@@]43C)[C@@H]1CC[C@@H]2C(=O)COS(=O)(=O)c1ccc(Br)cc1 | – | 53.1 | – | 46.6 µM | – | 73.6 | – | 44.8 | – | – | – | 22.5 | – | 34.6 µM | – | 37.5 | – | 34.5 µM | – | 3.01 |
| CNc1cc2nc3cc(NC)c(C)cc3cc2cc1C | 0.64 | 2.35 | 1.3 | 16 µM | 1.62 | 7.6 | 0.792 | 2.28 | 0.446 | 1.79 µM | – | – | 0.687 | 10.9 µM | 1.1 | 18.4 | 3.55 | 16.2 µM | 1.08 | 33.3 |
| C=C1COC(O)(C2OCOC(C3CC(=O)NC(=O)C3)C2O)C1C (stereo not drawn) | 0.00292 | 0.0128 | 0.00277 | 0.0357 µM and 0.0382 µM | 0.00428 | 0.0265 | 0.00176 | 0.0212 | 0.00234 | 0.00553 µM and 0.0217 µM | – | – | 0.00577 | 0.0423 µM and 0.033 µM | 0.00457 | – | 0.00456 | 0.0539 µM and 0.0498 µM | – | 0.00744 |
| COC(=O)NC(=Nc1ccc(Oc2ccccc2)cc1NC=O)NC(=O)OC | – | 0.618 | – | > 100 µM | – | – | – | > 100 | – | > 100 µM | – | – | – | > 100 µM | – | – | – | > 100 µM | – | > 100 |
| c1ccc(CN2CCC3(CC2)SSC2(CCN(Cc4ccccc4)CC2)SS3)cc1 | – | > 100 | – | > 100 µM | – | > 100 | – | > 100 | – | > 100 µM | – | > 100 | – | > 100 µM | – | > 100 | – | > 100 µM | – | – |
| O=C(NNc1ccc(F)cc1)C1CCC(CNS(=O)(=O)c2ccc(Cl)c(Cl)c2)CC1 (stereo not drawn) | 14.4 | > 50 | 15.9 | > 50 µM | 10.5 | 42.4 | 1.38 | 42.6 | 2.08 | 14.4 µM | 7.73 | > 50 | 4.76 | > 50 µM | – | – | 1.74 | 16.4 µM | 16.1 | > 50 |
| COC(=O)C1=Cc2cc(OC)c(OC)cc2[C@H](c2ccc(OC)c(OC)c2)C1C(=O)OC (stereo partly drawn) | – | > 100 | – | > 100 µM | – | – | – | > 100 | – | > 100 µM | – | – | – | > 100 µM | – | – | – | > 100 µM | – | > 100 |
| Cc1cc(Cl)ccc1NC(=O)CCCC(=O)C1CCC/C1=N\NC(=O)CC#N (stereo not drawn) | – | > 100 | – | – | – | – | – | > 100 | – | – | – | – | – | > 100 µM | – | – | – | > 100 µM | – | > 100 |
